# Laboratory results: ChEMBL document CHEMBL3507680, “University of Dundee, Gates Library screen for HepG2 cell viability”
# Experiment: Human HepG2 cell viability assay in 384 well format
# Type: toxicity, cell-based
# Set-up: dose 125 nL, time 70.5 hour; cytotoxicity at 70.5 h: concentration not given beside the values
# Conditions: HepG2 cells, read-out: Inhibition
row,Structure (SMILES),cytotoxicity at 70.5 h
1,CS(=O)(=O)c1ccc(NC(=O)NCCC2=CCCCC2)cc1,-10.3%
2,COCc1ccccc1NC(=O)CCNC(=O)c1ccoc1,-13.1%
3,CN(CCc1ccccn1)C(=O)Nc1cccnc1-n1cccn1,-16.2%
4,FC(F)(F)c1nc(NC2CCc3ncnn3C2)c2ccccc2n1 (stereo unspecified),24.8%
5,COC(=O)C1CCN(C(=O)Cn2ccc(-c3ccc(F)cc3)n2)CC1,-8.67%
6,O=C(Cn1ccc(-c2ccccc2)n1)N1CCN(C(=O)C2CC2)CC1,-2.62%
7,Cc1cnn(CCNCC(=O)N2CCN(c3ncccn3)CC2)c1,-4.23%
8,Cc1sc2ccccc2c1S(=O)(=O)NCCNC(=O)C(C)C,-7.05%
9,COCc1c(Cl)cccc1NC(=O)CNC(=O)C(C)(C)C,-4.66%
10,CCc1cccnc1NCc1cnc(N2CCOCC2)nc1,20.6%
11,CCOCCC(=O)Nc1cccc(Cl)c1COC,-2.76%
12,COc1cccc(CC2CCCN2Cc2nccn2C)c1 (stereo unspecified),-5%
13,CC(NC(=O)N1CCCN(CC(F)F)CC1)c1ccco1 (stereo unspecified),-8.42%
14,CCOCCC(=O)N1CCCC(c2cc(C(F)(F)F)[nH]n2)C1 (stereo unspecified),-10.6%
15,CC(CNC(=O)c1ccco1)N1CCc2sccc2C1 (stereo unspecified),-4.45%
16,Cc1nn(C)c2ncc(C(=O)N3CCNC(=O)C3)cc12,-3.66%
17,CC(=O)N(C)CC(=O)NC(C)c1ccc(OCCC(C)C)cc1 (stereo unspecified),-3.81%
18,Cc1nn(C)c2ncc(NC(=O)N3CCNC(=O)C3)cc12,-6.74%
19,CC(C)CCOc1ccc(C(C)NC(=O)CSCC(N)=O)cc1 (stereo unspecified),-8.07%
20,CC(C)OCCC(=O)NCC(c1c(F)cccc1F)N(C)C (stereo unspecified),22.3%
21,CC(C)CC(=O)NCC(O)c1c(F)cccc1F (stereo unspecified),-7.25%
22,CNC(=O)CCN(C)CC1(c2ccc(Br)cc2)CC1,-0.48%

row,Structure (SMILES),cytotoxicity at 70.5 h
1,COCC(O)CNC(=O)Nc1ccc(Cl)cc1-n1cccc1 (stereo unspecified),-7.23%
2,Cn1cc(CCC(=O)NC(c2ccc(F)cc2)C(F)(F)F)cn1 (stereo unspecified),-8.97%
3,CCc1cnc(COc2ccc(OC3CCCCNC3=O)cc2)o1 (stereo unspecified),-4.27%
4,CNC(=O)CN(C)CC1(c2ccc(Br)cc2)CC1,0.137%
5,CN1CCC(NC(=O)Nc2cnn(-c3ccccc3Cl)c2)CC1,-5.23%
6,Cc1ccc(CNC(=O)COc2ccc3c(c2)OCC3O)cc1 (stereo unspecified),-7.79%
7,COCCNc1nnc(S(=O)(=O)CCC(C)(C)C#N)s1,-5.9%
8,Cc1ccc(C(=O)N2CCOCC2C(N)=O)c(F)c1 (stereo unspecified),-8.13%
9,O=C(CCn1cnc2ccccc21)N1CCN2CCCCC2C1 (stereo unspecified),27.2%
10,Cn1cc(S(=O)(=O)NCC(C)(O)c2ccsc2)cn1 (stereo unspecified),1.13%
11,NC(=O)CSCCC(=O)NCC1CC1,3.32%
12,CC(C)S(=O)(=O)C(C)C(=O)NCc1ccccc1OCc1ccccc1 (stereo unspecified),-1.68%
13,CC(C)S(=O)(=O)C(C)C(=O)NCc1ccccc1COc1ccccc1 (stereo unspecified),-11%
14,O=C1CCN(C(=O)CCc2ccc(Cl)cc2Cl)CCN1,-6.13%
15,CC(=O)NCCNC(=O)NCC1Cc2ccccc2O1 (stereo unspecified),-4.29%
16,c1cc2c(cc1CN1CCN(Cc3noc(C4CC4)n3)CC1)OCO2,-2.86%
17,O=c1n(CCNCc2ccc(-c3ccccc3)cc2)nc2ccccn12,-8.68%
18,O=C(NCC1CC(=O)N(CCc2ccccc2)C1)c1c(F)cccc1F (stereo unspecified),3.42%
19,Cn1cccc1C(=O)OCCNC(=O)c1ccccc1,-10.7%
20,O=C(NCC1CC(=O)N(CCc2ccccc2)C1)c1ccon1 (stereo unspecified),-3.55%
21,Cc1ccc(NC2CCN(C(=O)CCCc3ccccn3)CC2)cc1,-8.59%
22,Cc1cc(CN(C)C(=O)NCc2ccnc(SC(C)(C)C)c2)no1,-9.52%

row,Structure (SMILES),cytotoxicity at 70.5 h
1,CC(C)c1noc(CCC(=O)N2CCCC(n3ccnc3)C2)n1 (stereo unspecified),-5.4%
2,Cc1nnc(C(C)Nc2cccc(COCCOC(C)C)c2)o1 (stereo unspecified),-1.57%
3,CC(NC(=O)N1CCc2sccc2C1)c1nncn1C (stereo unspecified),-5.43%
4,O=C(c1ccc(-n2ccnc2)cc1)N1CCCC1,34.6%
5,CC(NC(=O)N1CCc2ccccc2C1)c1nncn1C (stereo unspecified),-13.5%
6,O=C(Nc1cccnc1-n1cncn1)C1CCC1,-22.6%
7,Cc1ncc(C(=O)NCCNc2ncnc3sccc23)s1,-2.99%
8,CN(C)c1ccc(C(=O)N2CCCC2c2ccc(Cl)cc2)nn1 (stereo unspecified),-11.3%
9,CCOCC(=O)Nc1ccc(-n2ccc(C(N)=O)n2)cc1,-5.89%
10,Cc1nnc(C(C)Nc2cccc(COCC(F)(F)C(F)F)c2)o1 (stereo unspecified),24.9%
11,O=C(c1ccc(O)nc1)N1CCc2ccc(O)cc2C1,-13%
12,CCC(C)(CC(=O)OC)NC(=O)c1ccc(C(C)=O)cc1 (stereo unspecified),23.7%
13,Cc1cc(CC(=O)NCC(O)COc2ccc(F)c(F)c2)no1 (stereo unspecified),-12%
14,CCC(C)(CC(=O)OC)NC(=O)c1ccc2[nH]ccc2c1 (stereo unspecified),-10.1%
15,CCC(C)(CC(=O)OC)NC(=O)c1cccc(F)c1F (stereo unspecified),-14.7%
16,CC(=O)NCCCSC1CCN(c2ccccc2F)C1=O (stereo unspecified),-11.5%
17,CC(=O)NCCCSC1CCCN(c2ccccc2Cl)C1=O (stereo unspecified),-15.3%
18,Cn1cc(C(=O)CC2CCCN2C(=O)c2ccn3ccnc3c2)cn1 (stereo unspecified),-10.3%
19,CCc1nc(C2CCCN(C(=O)c3c[nH]c(C(C)C)n3)C2)no1 (stereo unspecified),-10.9%
20,COc1cccc(CCCN2CCC(N(C)S(C)(=O)=O)CC2)c1,4.63%
21,Cc1c(NCc2ccccc2C#N)cccc1S(=O)(=O)NC1CC1,5.79%
22,O=C(CN1CCS(=O)(=O)CC1)NC1CCOc2ccccc21 (stereo unspecified),-3.04%

row,Structure (SMILES),cytotoxicity at 70.5 h
1,CS(=O)(=O)Nc1cccc(CNC(=O)CCc2ccsc2)c1,-1.95%
2,O=C(Cn1cc(Cl)cn1)Nc1ccc2c(c1)OCCCO2,25.9%
3,CCNC(=O)C1CCCN(c2cccc(C(F)(F)F)n2)C1 (stereo unspecified),21.5%
4,CC(C(=O)N1CCN(c2ccc(F)cc2)CC1)n1ccnc1 (stereo unspecified),-3.73%
5,O=C(CCn1ccc2ccccc21)N1CCC(Nc2cccnc2)CC1,-1.56%
6,COC1CCN(C(=O)Cn2nc(C)cc2C)CC1,-3.13%
7,O=C(NCC1CC1)C1CCCN(c2cccc(C(F)(F)F)n2)C1 (stereo unspecified),19.6%
8,Cc1nc(CCNc2ccc(-c3nc(C)c(C)c(=O)[nH]3)cn2)cs1,-1.37%
9,CCCc1cc(C(=O)NCCCC(=O)N2Cc3ccccc3C2)[nH]n1,-6.02%
10,CS(=O)(=O)Cc1ccccc1NCc1cc(Cl)ccc1Cl,3.86%
11,COCC1CCN(CCCc2cccc(OC)c2)CC1,30.7%
12,Clc1cccc(N2CCC(NCc3ncc[nH]3)C2)c1 (stereo unspecified),0.765%
13,CCc1cc(CNC(=O)N(C2CC2)C(C)c2ccco2)on1 (stereo unspecified),23.3%
14,Cn1c(C2CC2)nc2cc(NC(=O)C3CC=CC3)ccc21,-5.03%
15,Cc1cc(NC(=O)NCCc2cscn2)nn1C,-4.59%
16,CC(C)c1n[nH]c(C2CN(Cc3ccno3)CCO2)n1 (stereo unspecified),0.21%
17,COc1ccc(-c2n[nH]cc2CNC2CCN(C3CC3)CC2)cc1,-2.67%
18,CC(C)C(N)CNS(=O)(=O)Cc1cccc2cccnc12 (stereo unspecified),-7.49%
19,NC(CNS(=O)(=O)Cc1cccc2cccnc12)c1ccccc1 (stereo unspecified),28.4%
20,NC(=O)C(c1ccc(F)cc1)N1CCN(CCO)CC1 (stereo unspecified),-6.75%
